Key:
Type in all cases: in vivo
[1] = system: large (Lg) crabgrass (Digitaria sanguinalis); test: Test A postemergence; conditions: 0 to 100 scale
Procedure, shortened: (§1)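 Injury scores run from 0, no effect, to 100, complete control, judged by eye against untreated plants roughly 10 days after treatment. Chemicals carried a surfactant in a non-phytotoxic solvent and went onto loam–sand soil preemergence or onto one- to two-leaf seedlings postemergence.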

[2] = system: velvetleaf (Abutilon theophrasti); test: Test A postemergence; conditions: 0 to 100 scale
Procedure, shortened: as §1

[3] = system: morningglory (Ipomoea spp.); test: Test A postemergence; conditions: 0 to 100 scale
Procedure, shortened: as §1

[4] = system: wild buckwheat (Polygonum convolvulus); test: Test D preemergence; conditions: scale 0 to 100
Source text: (§2) Seeds of plant species selected from bluegrass (annual bluegrass, Poa annua), blackgrass (Alopecurus myosuroides), canarygrass (Phalaris minor), chickweed (common chickweed, Stellaria media), cutleaf geranium (Geranium dissectum), galium (catchweed bedstraw, Galium aparine), downy bromegrass (Bromus tectorum), field poppy (Papaver rhoeas), field violet (Viola arvensis), green foxtail (Setaria viridis), deadnettle (henbit deadnettle, Lamium amplexicaule), Italian ryegrass (Lolium multiflorum), kochia (Kochia scoparia), lambsquarters (Chenopodium album), oilseed rape (Brassica napus), pigweed (Amaranthus retroflexus), chamomile (scentless chamomile, Matricaria inodora), Russian thistle (Salsola kali), speedwell (bird's-eye speedwell, Veronica persica), spring barley (Hordeum vulgare), spring wheat (Triticum aestivum), wild buckwheat (Polygonum convolvulus), wild mustard (Sinapis arvensis), wild oat (Avenafatua), wild radish (Raphanus raphanistrum), windgrass (Apera spica-venti), winter barley (Hordeum vulgare), and winter wheat (Triticum aestivum) were planted into a silt loam soil and treated preemergence with test chemicals formulated in a non-phytotoxic solvent mixture which included a surfactant.
(§3) At the same time, these species were planted in pots containing Redi-Earth® planting medium (Scotts Company, 14111 Scottslawn Road, Marysville, Ohio 43041) comprising spaghnum peat moss, vermiculite, wetting agent and starter nutrients and treated with postemergence applications of the test chemicals formulated in the same manner. Plants ranged in height from 2 to 18 cm (1- to 4-leaf stage). Treated plants and controls were maintained in a controlled growth environment for 14 to 21 days after which time all species were compared to controls and visually evaluated. Plant response ratings, summarized in Table D, are based on a scale of 0 to 100 where 0 is no effect and 100 is complete control. A dash (-) response means no test result.

[5] = system: lambsquarters (Chenopodium album); test: Test D preemergence; conditions: scale 0 to 100
Source text: as §2, §3

[6] = system: spring barley (Hordeum vulgare); test: Test D preemergence; conditions: scale 0 to 100
Source text: as §2, §3

[7] = system: oilseed rape (Brassica napus); test: Test D preemergence; conditions: scale 0 to 100
Source text: as §2, §3

[8] = system: field violet (Viola arvensis); test: Test D preemergence; conditions: scale 0 to 100
Source text: as §2, §3

[9] = system: chickweed (common chickweed, Stellaria media); test: Test D preemergence; conditions: scale 0 to 100
Source text: as §2, §3

[10] = system: pigweed (Amaranthus retroflexus); test: Test D preemergence; conditions: scale 0 to 100
Source text: as §2, §3

[11] = system: downy bromegrass (Bromus tectorum); test: Test D preemergence; conditions: scale 0 to 100
Source text: as §2, §3

[12] = system: winter barley (Hordeum vulgare); test: Test D preemergence; conditions: scale 0 to 100
Source text: as §2, §3

[13] = system: green foxtail (Setaria viridis); test: Test D preemergence; conditions: scale 0 to 100
Source text: as §2, §3

[14] = system: field poppy (Papaver rhoeas); test: Test D preemergence; conditions: scale 0 to 100
Source text: as §2, §3

[15] = system: windgrass (Apera spica-venti); test: Test D preemergence; conditions: scale 0 to 100
Source text: as §2, §3

[16] = system: bluegrass (annual bluegrass, Poa annua); test: Test D preemergence; conditions: scale 0 to 100
Source text: as §2, §3

With `N#Cc1cccc(Oc2ncc(Cl)cn2)c1Oc1ncc(Cl)cn1` [Compound 3, 2,3-bis[(5-chloro-2-pyrimidinyl)oxy]benzonitrile] the “Plant response rating, Crabgrass, Large” value ([1]; 125 g ai/ha) was 90, the “Plant response rating, Crabgrass, Large” value ([1]; 500 g ai/ha) was 90 and the “Plant response rating, Velvetleaf” value ([2]; 125 g ai/ha) was 100. For the same compound, the “Plant response rating, Velvetleaf” value ([2]; 500 g ai/ha) was 100, the “Plant response rating, Morningglory” value ([3]; 125 g ai/ha) was 100 and the “Plant response rating, Morningglory” value ([3]; 500 g ai/ha) was 100. For the same compound, the “Plant response rating, Buckwheat, Wild” value ([4]; 16 g ai/ha) was 0, the “Plant response rating, Buckwheat, Wild” value ([4]; 31 g ai/ha) was 30 and the “Plant response rating, Buckwheat, Wild” value ([4]; 62 g ai/ha) was 75. The “Plant response rating, Buckwheat, Wild” value ([4]; 125 g ai/ha) was 100, the “Plant response rating, Lambsquarters” value ([5]; 16 g ai/ha) was 10 and the “Plant response rating, Lambsquarters” value ([5]; 31 g ai/ha) was 95. The “Plant response rating, Lambsquarters” value ([5]; 62 g ai/ha) was 100, the “Plant response rating, Lambsquarters” value ([5]; 125 g ai/ha) was 100 and the “Plant response rating, Barley, Spring” value ([6]; 16 g ai/ha) was 0. The “Plant response rating, Barley, Spring” value ([6]; 31 g ai/ha) was 0, the “Plant response rating, Barley, Spring” value ([6]; 62 g ai/ha) was 0 and the “Plant response rating, Barley, Spring” value ([6]; 125 g ai/ha) was 40. The “Plant response rating, Oilseed Rape” value ([7]; 16 g ai/ha) was 10, the “Plant response rating, Oilseed Rape” value ([7]; 31 g ai/ha) was 25 and the “Plant response rating, Oilseed Rape” value ([7]; 62 g ai/ha) was 35. For the same compound, the “Plant response rating, Oilseed Rape” value ([7]; 125 g ai/ha) was 100, the “Plant response rating, Field Violet” value ([8]; 16 g ai/ha) was 100 and the “Plant response rating, Field Violet” value ([8]; 31 g ai/ha) was 100. For the same compound, the “Plant response rating, Field Violet” value ([8]; 62 g ai/ha) was 100, the “Plant response rating, Field Violet” value ([8]; 125 g ai/ha) was 100 and the “Plant response rating, Chickweed” value ([9]; 16 g ai/ha) was 100. The “Plant response rating, Chickweed” value ([9]; 31 g ai/ha) was 100, the “Plant response rating, Chickweed” value ([9]; 62 g ai/ha) was 100 and the “Plant response rating, Chickweed” value ([9]; 125 g ai/ha) was 100. The “Plant response rating, Pigweed” value ([10]; 16 g ai/ha) was 100, the “Plant response rating, Pigweed” value ([10]; 31 g ai/ha) was 100 and the “Plant response rating, Pigweed” value ([10]; 62 g ai/ha) was 100. For the same compound, the “Plant response rating, Pigweed” value ([10]; 125 g ai/ha) was 100, the “Plant response rating, Bromegrass, Downy” value ([11]; 16 g ai/ha) was 0 and the “Plant response rating, Bromegrass, Downy” value ([11]; 31 g ai/ha) was 0. For the same compound, the “Plant response rating, Bromegrass, Downy” value ([11]; 62 g ai/ha) was 5, the “Plant response rating, Bromegrass, Downy” value ([11]; 125 g ai/ha) was 15 and the “Plant response rating, Barley, Winter” value ([12]; 16 g ai/ha) was 0. For the same compound, the “Plant response rating, Barley, Winter” value ([12]; 31 g ai/ha) was 0, the “Plant response rating, Barley, Winter” value ([12]; 62 g ai/ha) was 20 and the “Plant response rating, Barley, Winter” value ([12]; 125 g ai/ha) was 70. For the same compound, the “Plant response rating, Foxtail, Green” value ([13]; 16 g ai/ha) was 10, the “Plant response rating, Foxtail, Green” value ([13]; 31 g ai/ha) was 60 and the “Plant response rating, Foxtail, Green” value ([13]; 62 g ai/ha) was 100. The “Plant response rating, Foxtail, Green” value ([13]; 125 g ai/ha) was 100, the “Plant response rating, Field Poppy” value ([14]; 16 g ai/ha) was 90 and the “Plant response rating, Field Poppy” value ([14]; 31 g ai/ha) was 100. For the same compound, the “Plant response rating, Field Poppy” value ([14]; 62 g ai/ha) was 100, the “Plant response rating, Field Poppy” value ([14]; 125 g ai/ha) was 100 and the “Plant response rating, Windgrass” value ([15]; 16 g ai/ha) was 10. The “Plant response rating, Windgrass” value ([15]; 31 g ai/ha) was 15, the “Plant response rating, Windgrass” value ([15]; 62 g ai/ha) was 50 and the “Plant response rating, Windgrass” value ([15]; 125 g ai/ha) was 80. For the same compound, the “Plant response rating, Bluegrass” value ([16]; 16 g ai/ha) was 0, the “Plant response rating, Bluegrass” value ([16]; 31 g ai/ha) was 0 and the “Plant response rating, Bluegrass” value ([16]; 62 g ai/ha) was 25. The “Plant response rating, Bluegrass” value ([16]; 125 g ai/ha) was 85.
